Source: patent US8802597B2, “Herbicidal pyrimidines” (E I du Pont de Nemours and Company, priority 2003, dated 2014)

Assays:
Assay type in all cases: in vivo
[1] = system: redroot pigweed (Amaranthus retroflexus); test: Test A pre/postemergence
Procedure, shortened: (§1)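 Pre/post greenhouse screen; loam/sand soil; solvent + surfactant formulation; pre = directed soil spray at planting, post = 1–2 leaf plants, 2–10 cm; ~10 d; visual 0–100 rating vs untreated.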

[2] = system: morningglory (Ipomoea spp.); test: Test A pre/postemergence
Procedure, shortened: as §1

[3] = system: barnyardgrass (Echinochloa crus-galli); test: Test A pre/postemergence
Procedure, shortened: as §1

[4] = system: crabgrass (Digitaria sanguinalis); test: Test A pre/postemergence
Procedure, shortened: as §1

[5] = system: velvetleaf (Abutilon theophrasti); test: Test A pre/postemergence
Procedure, shortened: as §1

[6] = system: giant foxtail (Setaria faberi); test: Test A pre/postemergence
Procedure, shortened: as §1

[7] = system: purple redstem (Ammannia coccinea); test: Test E flooded paddy water application; settings: Flood, 21 days, scale 0 to 100 (0 no effect, 100 complete control)
From the text: (§2) Three plastic pots (ca. 16-cm diameter) per rate were partially filled with sterilized Tama silt loam soil comprising a 35:50:15 ratio of sand, silt and clay and 2.6% organic matter. Separate plantings for each of the three pots were as follows. Seeds from the U.S. of ducksalad (Heteranthera limosa), smallflower umbrella sedge (Cyperus difformis) and purple redstem (Ammannia coccinea), were planted into one 16-cm pot for each rate. Seeds from the U.S. of rice flatsedge (Cyperus iria), bearded (brdd.) sprangletop (Leptochloa fusca ssp. fascicularis), one stand of 9 or 10 water seeded rice seedlings (Oryza sativa cv. ‘Japonica-M202’), and one stand of 6 transplanted rice seedlings (Oryza sativa cv. ‘Japonica-M202’) were planted into one 16-cm pot for each rate. Seeds from the U.S. of barnyardgrass (Echinochloa crus-galli), late watergrass (Echinochloa oryzicola), early watergrass (Echinochloa oryzoides) and junglerice (Echinochloa colona) were planted into one 16-cm pot for each rate. Plantings were sequential so that crop and weed species were at the 2.0 to 2.5-leaf stage at time of treatment.
(§3) Potted plants were grown in a greenhouse with day/night temperature settings of 29.5/26.7° C., and supplemental balanced lighting was provided to maintain a 16-hour photoperiod. Test pots were maintained in the greenhouse until test completion.
(§4) At time of treatment, test pots were flooded to 3 cm above the soil surface, treated by application of test compounds directly to the paddy water, and then maintained at that water depth for the duration of the test. Effects of treatments on rice and weeds were visually evaluated by comparison to untreated controls after 21 days. Plant response ratings, summarized in Table E, are based on a scale of 0 to 100 where 0 is no effect and 100 is complete control. A dash (-) response means no test result.

[8] = system: smallflower umbrella sedge (Cyperus difformis); test: Test E flooded paddy water application; settings: Flood, 21 days, scale 0 to 100 (0 no effect, 100 complete control)
From the text: as §2, §3, §4

[9] = system: transplanted rice seedlings (Oryza sativa cv. ‘Japonica-M202’); test: Test E flooded paddy water application; settings: Flood, 21 days, scale 0 to 100 (0 no effect, 100 complete control)
From the text: as §2, §3, §4

[10] = system: rice flatsedge (Cyperus iria); test: Test E flooded paddy water application; settings: Flood, 21 days, scale 0 to 100 (0 no effect, 100 complete control)
From the text: as §2, §3, §4

[11] = system: water seeded rice seedlings (Oryza sativa cv. ‘Japonica-M202’); test: Test E flooded paddy water application; settings: Flood, 21 days, scale 0 to 100 (0 no effect, 100 complete control)
From the text: as §2, §3, §4

[12] = system: bearded (brdd.) sprangletop (Leptochloa fusca ssp. fascicularis); test: Test E flooded paddy water application; settings: Flood, 21 days, scale 0 to 100 (0 no effect, 100 complete control)
From the text: as §2, §3, §4

[13] = system: late watergrass (Echinochloa oryzicola); test: Test E flooded paddy water application; settings: Flood, 21 days, scale 0 to 100 (0 no effect, 100 complete control)
From the text: as §2, §3, §4

[14] = system: barnyardgrass (Echinochloa crus-galli); test: Test E flooded paddy water application; settings: Flood, 21 days, scale 0 to 100 (0 no effect, 100 complete control)
From the text: as §2, §3, §4

[15] = system: ducksalad (Heteranthera limosa); test: Test E flooded paddy water application; settings: Flood, 21 days, scale 0 to 100 (0 no effect, 100 complete control)
From the text: as §2, §3, §4

[16] = system: junglerice (Echinochloa colona); test: Test E flooded paddy water application; settings: Flood, 21 days, scale 0 to 100 (0 no effect, 100 complete control)
From the text: as §2, §3, §4

[17] = system: early watergrass (Echinochloa oryzoides); test: Test E flooded paddy water application; settings: Flood, 21 days, scale 0 to 100 (0 no effect, 100 complete control)
From the text: as §2, §3, §4

[18] = Postemergence, 125 g ai/ha, 0 to 100 scale (0 no effect, 100 complete control)
[19] = Postemergence, 500 g ai/ha, 0 to 100 scale (0 no effect, 100 complete control)
[20] = Preemergence, 125 g ai/ha, 0 to 100 scale where 0 is no effect and 100 is complete control, approximately ten days
[21] = Preemergence, 500 g ai/ha, 0 to 100 scale where 0 is no effect and 100 is complete control, approximately ten days

SMILES: CCOC(=O)c1nc(-c2ccc(C)cc2)nc(N)c1Br [Compound 61]
- Plant response rating, Pigweed [1, 18]: 25
- Plant response rating, Pigweed [1, 19]: 50
- Plant response rating, Pigweed [1, 20]: 0
- Plant response rating, Pigweed [1, 21]: 30
- Plant response rating, Morningglory [2, 18]: 10
- Plant response rating, Morningglory [2, 19]: 30
- Plant response rating, Morningglory [2, 20]: 0
- Plant response rating, Morningglory [2, 21]: 15
- Plant response rating, Barnyardgrass [3, 18]: 35
- Plant response rating, Barnyardgrass [3, 19]: 60
- Plant response rating, Barnyardgrass [3, 20]: 0
- Plant response rating, Barnyardgrass [3, 21]: 10
- Plant response rating, Crabgrass [4, 18]: 0
- Plant response rating, Crabgrass [4, 19]: 5
- Plant response rating, Crabgrass [4, 20]: 0
- Plant response rating, Crabgrass [4, 21]: 30
- Plant response rating, Velvetleaf [5, 18]: 70
- Plant response rating, Velvetleaf [5, 19]: 100
- Plant response rating, Velvetleaf [5, 20]: 0
- Plant response rating, Velvetleaf [5, 21]: 50
- Plant response rating, Foxtail, Giant [6, 18]: 0
- Plant response rating, Foxtail, Giant [6, 19]: 25
- Plant response rating, Foxtail, Giant [6, 20]: 0
- Plant response rating, Foxtail, Giant [6, 21]: 10
- Redstem plant response rating ([7]; 32 g ai/ha): 65
- Redstem plant response rating ([7]; 64 g ai/ha): 80
- Redstem plant response rating ([7]; 125 g ai/ha): 80
- Redstem plant response rating ([7]; 250 g ai/ha): 100
- Redstem plant response rating ([7]; 500 g ai/ha): 100
- Sedge, Umbrella plant response rating ([8]; 32 g ai/ha): 20
- Sedge, Umbrella plant response rating ([8]; 64 g ai/ha): 75
- Sedge, Umbrella plant response rating ([8]; 125 g ai/ha): 85
- Sedge, Umbrella plant response rating ([8]; 250 g ai/ha): 95
- Sedge, Umbrella plant response rating ([8]; 500 g ai/ha): 100
- Rice, Transplanted plant response rating ([9]; 32 g ai/ha): 0
- Rice, Transplanted plant response rating ([9]; 64 g ai/ha): 0
- Rice, Transplanted plant response rating ([9]; 125 g ai/ha): 0
- Rice, Transplanted plant response rating ([9]; 250 g ai/ha): 0
- Rice, Transplanted plant response rating ([9]; 500 g ai/ha): 25
- Flatsedge, Rice plant response rating ([10]; 32 g ai/ha): 0
- Flatsedge, Rice plant response rating ([10]; 64 g ai/ha): 0
- Flatsedge, Rice plant response rating ([10]; 125 g ai/ha): 40
- Flatsedge, Rice plant response rating ([10]; 250 g ai/ha): 40
- Flatsedge, Rice plant response rating ([10]; 500 g ai/ha): 95
- Rice, Water Seeded plant response rating ([11]; 32 g ai/ha): 0
- Rice, Water Seeded plant response rating ([11]; 64 g ai/ha): 0
- Rice, Water Seeded plant response rating ([11]; 125 g ai/ha): 0
- Rice, Water Seeded plant response rating ([11]; 250 g ai/ha): 10
- Rice, Water Seeded plant response rating ([11]; 500 g ai/ha): 35
- Sprangletop, Brdd. plant response rating ([12]; 32 g ai/ha): 35
- Sprangletop, Brdd. plant response rating ([12]; 64 g ai/ha): 35
- Sprangletop, Brdd. plant response rating ([12]; 125 g ai/ha): 60
- Sprangletop, Brdd. plant response rating ([12]; 250 g ai/ha): 65
- Sprangletop, Brdd. plant response rating ([12]; 500 g ai/ha): 65
- Watergrass, Late plant response rating ([13]; 32 g ai/ha): 0
- Watergrass, Late plant response rating ([13]; 64 g ai/ha): 20
- Watergrass, Late plant response rating ([13]; 125 g ai/ha): 20
- Watergrass, Late plant response rating ([13]; 250 g ai/ha): 20
- Watergrass, Late plant response rating ([13]; 500 g ai/ha): 25
- Barnyardgrass plant response rating ([14]; 32 g ai/ha): 0
- Barnyardgrass plant response rating ([14]; 64 g ai/ha): 0
- Barnyardgrass plant response rating ([14]; 125 g ai/ha): 0
- Barnyardgrass plant response rating ([14]; 250 g ai/ha): 0
- Barnyardgrass plant response rating ([14]; 500 g ai/ha): 65
- Ducksalad plant response rating ([15]; 32 g ai/ha): 100
- Ducksalad plant response rating ([15]; 64 g ai/ha): 100
- Ducksalad plant response rating ([15]; 125 g ai/ha): 100
- Ducksalad plant response rating ([15]; 250 g ai/ha): 100
- Ducksalad plant response rating ([15]; 500 g ai/ha): 100
- Junglerice plant response rating ([16]; 32 g ai/ha): 0
- Junglerice plant response rating ([16]; 64 g ai/ha): 20
- Junglerice plant response rating ([16]; 125 g ai/ha): 20
- Junglerice plant response rating ([16]; 250 g ai/ha): 25
- Junglerice plant response rating ([16]; 500 g ai/ha): 25
- Watergrass, Early plant response rating ([17]; 32 g ai/ha): 0
- Watergrass, Early plant response rating ([17]; 64 g ai/ha): 0
- Watergrass, Early plant response rating ([17]; 125 g ai/ha): 0
- Watergrass, Early plant response rating ([17]; 250 g ai/ha): 20
- Watergrass, Early plant response rating ([17]; 500 g ai/ha): 25
